{
  "source": "patent US7893110B2",
  "about": "(Givaudan S.A., priority 2005, dated 2011)",
  "key": {"[1]": {"tested_on": "mouth", "experiment": "Application in toothpaste: cooling sensation felt by panelist", "format": "in vivo", "settings": "toothgel with 2.5 g of 2% sol. in PG per 100 g, plus peppermint oil; 1 g brushed on teeth, mouth rinsed with water", "description": "[table] The chemicals are mixed in the toothgel, and 1 g of the toothgel is put on a toothbrush and a panelist's teeth are brushed. The mouth is rinsed with water and the water is spit out."}, "[2]": {"tested_on": "mouth", "experiment": "Application in mouthwash: cooling sensation", "format": "in vivo", "settings": "mouthwash with 50 mL of 1% sol. in alcohol per liter, plus peppermint oil; 30 mL put in the mouth, swished, gargled and spit out", "method": "[table] All the ingredients are mixed. 30 mL of obtained solution is put in the mouth, swished around, gargled and spit out."}},
  "data": [
    {"smiles": "COc1ccc(NC(=O)C23CC4CC(CC(C4)C2)C3)cc1", "note": "[Example 2F, Adamantane-1-carboxylic acid (4-methoxy-phenyl)-amide]", "values": [
      {"measurement": "cooling sensation in the mouth", "setting": "[1]", "result": "cooling sensation"}
    ]},
    {"smiles": "CC(C)(C)C1CCCCC1C(=O)Nc1ccc(CO)cc1", "note": "(centres unmarked) [Example 2L, 2-tert-Butyl-cyclohexanecarboxylic acid (4-hydroxymethyl-phenyl)-amide]", "values": [
      {"measurement": "cooling sensation in the mouth", "setting": "[2]", "result": "strong cooling sensation"}
    ]}
  ]
}
